Where two headings read alike, the source gives them in different places.

The target of data set [1] is T1, KRasG12C (Homo sapiens, UniProt P01116, G12C).
T1 construct: biotin (biotinylated); made in house
Description: KRasG12C functional assay (HTRF, SOS-mediated nucleotide exchange / Raf RBD binding). In kind it is biochemical. The conditions noted are these: 4 hrs incubation with GDP loaded biotinylated KRasG12C, single experiment or average of two or more. The procedure:
KRasG12C Functional Assay
All enzyme and substrate solutions were prepared in assay buffer containing 20 mM HEPES (pH 7.5), 5 mM MgCl2, 150 mM NaCl, and 0.01% Tween 20. […] In a separate mix 20 nM GST-Raf Ras binding domain (GST-Raf RBD, purified in house) and 4 μg/ml anti-GST XL665 antibody (Cisbio) was prepared in assay buffer containing 50 mM Potassium Fluoride and 0.05 mg/ml BSA and equilibrated for 4 hours before adding 0.6 μM Guanosine 5′-[γ-thio]triphosphate (GTPγS, Sigma) and 0.08 μM SOS (purified in house). 5 μl of the GST-RAF RBD mix was then dispensed into each well of the assay plate. […] This is detected simultaneously via the specific binding interaction between active GTPγS KRas^G12C with GST-Raf RBD which brings the europium and XL665 into close proximity enabling an increased FRET signal to be detected on a Pherastar (BMG) plate reader equipped with the HTRF filter module. […] IC50 values were calculated from normalised dose-response response FRET data curve fitted in Genedata screener (Basel, Switzerland).

Data set [2] is described as follows: Caco AB cell permeability. The data set is classed as in vitro ADME. The note with it: human, Caco-2; A to B.
Data set [3] in a line: In vivo pharmacokinetics in rat (oral bioavailability, clearance).
The target of data set [4] is T1, KRasG12C. Put plainly: KRasG12C mass spectrometry adducting assay. In kind it is binding. The conditions noted are these: 10 μM test compound, 4 μM GDP loaded KRasG12C, 4 hours. The procedure:
KRasG12C Mass Spectrometry Adducting Assay
Enzyme solutions were prepared in assay buffer containing 20 mM HEPES (pH 7.5), 5 mM MgCl2, and 150 mM NaCl. […] The plate was sealed before reading on a Xevo G2 QTOF (Waters) and Acquity LC system (Waters). 10 μl of sample was injected onto a Xbridge BEH300; C4; 3.5 um; 2.1×50 mm column (Waters) running a 3 minute gradient. Blank samples were run in between each test sample.
Data was analysed in Mass Lynx software (Waters), the Total ion count (TIC) trace was used and the eluted protein peak data combined. Using the combined spectrum the data was deconvoluted using MaxEnt1 method. The peak area for apo-protein KRas^G12C (APO) and KRAS+relative cmpd mass (adduct) were measured, and a percentage adduct was calculated using the following calculation: Percent adduct=100*(area of adduct peak/(sum of APO+adduct peaks)

A further data set is described as follows: Half life in rat blood. In kind it is in vitro ADME.
Where [5] appears, read: read-out: KRasG12C functional assay IC50 value.

T1 sequence (P01116 1-188 isoform P01116-2 G12C): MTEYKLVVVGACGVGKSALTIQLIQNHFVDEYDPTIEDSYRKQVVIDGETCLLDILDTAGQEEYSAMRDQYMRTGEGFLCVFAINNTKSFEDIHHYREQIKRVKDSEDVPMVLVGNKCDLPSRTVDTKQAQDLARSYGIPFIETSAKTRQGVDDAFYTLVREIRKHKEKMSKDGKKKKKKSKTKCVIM

At KRasG12C [1] (KRasG12C functional assay IC50 value), `C=CC(=O)N1C[C@@H]2CCOc3c(Cl)c(-c4c(O)cccc4F)c(F)c4ncnc(c34)N2C[C@H]1C` (single isomer, unassigned) [Example 39] displayed a concentration for half-maximal inhibition (IC50) of 3 nM. This molecule also showed a Papp A→B in data set [2] of 72 ×10⁻⁶ cm/s. In data set [3], the “clearance (Cl)” value was found to be 22 mL/min/kg and the oral bioavailability stood at 75%.

`C=CC(=O)N1CCN2c3ncnc4c(F)c(-c5c(C)ccc6[nH]nnc56)c(Cl)c(c34)OC[C@@H]2C1` (single isomer, unassigned) [Example 18]: the IC50 at KRasG12C [1] (setting [5]) is 239 nM. Further, on KRasG12C [4], the “KRasG12C M. S. Binding Mean adduct %” value is recorded as 25%.

For `C=CC(=O)N1C[C@H]2COc3c(Cl)c(-c4c(O)cccc4F)c(F)c4ncnc(c34)N2C[C@H]1C` (single isomer, unassigned) [Example 5], the IC50 on KRasG12C [1] (setting [5]) turned out to be 6350 nM. In addition, at KRasG12C [4], the “KRasG12C M. S. Binding Mean adduct %” value is 14%.

Consider `C=CC(=O)N1CCN2c3ncnc4c(F)c(-c5c(F)ccc6[nH]nnc56)c(Cl)c(c34)OC[C@@H]2C1` (single isomer, unassigned) [Example 26], for which, at KRasG12C [1] (setting [5]), the IC50 worked out at 51 nM. The “KRasG12C M. S. Binding Mean adduct %” value on KRasG12C [4] worked out at 100%.

`C=CC(=O)N1CCN2c3ncnc4c(F)c(-c5cccc6cc[nH]c(=O)c56)c(Cl)c(c34)OC[C@@H]2C1` [Example 10, 8-[(8aS)-6-Chloro-4-fluoro-10-(prop-2-enoyl)-8,8a,9,10,11,12-hexahydropyrazino[2′,1′:3,4][1,4]oxazepino[5,6,7-de]quinazolin-5-yl]isoquinolin-1(2H)-one]: the IC50 at KRasG12C [1] (setting [5]) is 68 nM. Further, the “KRasG12C M. S. Binding Mean adduct %” value on KRasG12C [4] was found to be 94%.

Take `C=CC(=O)N1CCN2c3ncnc4c(F)c(-c5c(C)ccc6cc[nH]c(=O)c56)c(Cl)c(c34)OC[C@@H]2C1` (single isomer, unassigned) [Example 17]: the IC50 at KRasG12C [1] (setting [5]) turned out to be 373 nM. Also, on KRasG12C [4], the “KRasG12C M. S. Binding Mean adduct %” value is listed as 30%.

On to `C=CC(=O)N1C[C@H]2COc3c(Cl)c(-c4c(O)cccc4F)c(F)c4ncnc(c34)N2C[C@@H]1C` [Example 3, 1-[(8aS,11S)-6-Chloro-4-fluoro-5-(2-fluoro-6-hydroxyphenyl)-11-methyl-8a,9,11,12-tetrahydropyrazino[2′,1′:3,4][1,4]oxazepino[5,6,7-de]quinazolin-10(8H)-yl]prop-2-en-1-one], for which, on KRasG12C [1] (setting [5]), the IC50 came out at 113 nM. Moreover, the “KRasG12C M. S. Binding Mean adduct %” value on KRasG12C [4] is 54%.

Take `C=CC(=O)N1CCN2c3ncnc4c(F)c(-c5n[nH]c6ccccc56)c(Cl)c(c34)OC[C@@H]2C1` [Example 11, 1-[(8aS)-6-Chloro-4-fluoro-5-(1H-indazol-3-yl)-8a,9,11,12-tetrahydropyrazino[2′,1′:3,4][1,4]oxazepino[5,6,7-de]quinazolin-10(8H)-yl]prop-2-en-1-one]: on KRasG12C [1] (setting [5]), the IC50 came to 201 nM. At KRasG12C [4], the “KRasG12C M. S. Binding Mean adduct %” value was determined as 96%.

Regarding `C=CC(=O)N1CCN2c3ncnc4c(F)c(-c5c(C)ccc6c5C(=O)NC6)c(Cl)c(c34)OC[C@@H]2C1` (single isomer, unassigned) [Example 2], the IC50 on KRasG12C [1] (setting [5]) amounted to 290 nM. For the same molecule, at KRasG12C [4], the “KRasG12C M. S. Binding Mean adduct %” value stood at 25%.

On to `C=CC(=O)N1CCN2c3ncnc4c(F)c(-c5c(C)ccc6[nH]nnc56)c(Cl)c(c34)OC[C@@H]2C1` (single isomer, unassigned) [Example 19], for which the IC50 at KRasG12C [1] (setting [5]) came out at 24 nM. The “KRasG12C M. S. Binding Mean adduct %” value at KRasG12C [4] came out at 94%.

As to `C=CC(=O)N1CCN2c3ncnc4c(F)c(-c5c(F)ccc6[nH]ncc56)c(Cl)c(c34)OC[C@@H]2C1` (single isomer, unassigned) [Example 22], the IC50 on KRasG12C [1] (setting [5]) is 30 nM. For the same molecule, the “KRasG12C M. S. Binding Mean adduct %” value on KRasG12C [4] stood at 95%.

Regarding `C=CC(=O)N1C[C@H]2COc3c(Cl)c(-c4c(O)cccc4F)c(F)c4ncnc(c34)N2C[C@H]1C` (single isomer, unassigned) [Example 4], at KRasG12C [1] (setting [5]), the IC50 was 50 nM. For the same molecule, the “KRasG12C M. S. Binding Mean adduct %” value on KRasG12C [4] was determined as 96%. This molecule also displayed a Papp A→B in data set [2] of 58 ×10⁻⁶ cm/s. In addition, the oral bioavailability in data set [3] was 31%. In addition, the clearance in data set [3] (in vivo) was 29 mL/min/kg.

With `C=CC(=O)N1CCN2c3ncnc4c(F)c(-c5c(C)ccc6[nH]cnc56)c(Cl)c(c34)OC[C@@H]2C1` (single isomer, unassigned) [Example 9], the 50% inhibitory concentration (IC50) on KRasG12C [1] (setting [5]) is 230 nM. Besides, the “KRasG12C M. S. Binding Mean adduct %” value at KRasG12C [4] is given as 22%.

As for `C=CC(=O)N1CCN2c3ncnc4c(F)c(-c5c(C)ccc6[nH]cnc56)c(Cl)c(c34)OC[C@@H]2C1` (single isomer, unassigned) [Example 8], the IC50 at KRasG12C [1] (setting [5]) worked out at 12 nM. Besides, at KRasG12C [4], the “KRasG12C M. S. Binding Mean adduct %” value turned out to be 96%.

Consider `C=CC(=O)N1CCN2c3ncnc4c(F)c(-c5c(C)ccc6c5C(=O)NC6)c(Cl)c(c34)OC[C@@H]2C1` (single isomer, unassigned) [Example 1], for which, at KRasG12C [1] (setting [5]), the IC50 was 19 nM. The “KRasG12C M. S. Binding Mean adduct %” value at KRasG12C [4] is 98%.

For the molecule `Cc1ccc2[nH]ncc2c1-c1c(Cl)c2c3c(ncnc3c1F)N1CCN(C(=O)/C=C/CN(C)C)C[C@H]1CO2` (single isomer, unassigned) [Example 30], the IC50 on KRasG12C [1] (setting [5]) came to 170 nM. In addition, on KRasG12C [4], the “KRasG12C M. S. Binding Mean adduct %” value is listed as 94%.

For the molecule `C=CC(=O)N1CCN2c3ncnc4c(F)c(-c5c(O)cccc5F)c(Cl)c(c34)OC[C@@H]2C1` [R^5 desmethyl compound, 1-((8aS)-6-chloro-4-fluoro-5-(2-fluoro-6-hydroxyphenyl)-8a,9,11,12-tetrahydropyrazino[2′,1′:3,4] [1,4]oxazepino[5,6,7-de]quinazolin-10(8H)-yl)prop-2-en-1-one, reference compound], the half-life in “Half life in rat blood” was found to be 12 min. Also, the Papp A→B in data set [2] was determined as 5.8 ×10⁻⁶ cm/s. Also, the clearance in data set [3] (in vivo) worked out at 962 mL/min/kg. This molecule also had a bioavailability in data set [3] (in vivo, po) of 0%.

With `CN(C)C/C=C/C(=O)N1CCN2c3ncnc4c(F)c(-c5c(O)cccc5F)c(Cl)c(c34)OC[C@@H]2C1` (single isomer, unassigned) [Example 14], on KRasG12C [1] (setting [5]), the IC50 is 59 nM. For the same molecule, on KRasG12C [4], the “KRasG12C M. S. Binding Mean adduct %” value worked out at 94%.
